{"source": "patent EP4385997A1", "about": "(priority 2022, dated 2024)", "test_system": "Xylella fastidiosa DSM10026/ATCC35879", "note": "Where no end group is shown, it is not given here."}
{"substance": "KWKLFKKIEKVGQNIRDGIIKAGPAVAVVGQATQIAK-NH2 (C-terminus assumed) [Cecropin A BR001]", "values": [{"measurement": "MIC (µM)", "result": 6.25, "unit": "µM"}, {"measurement": "MIC (µg mL^-1)", "result": 25, "unit": "µg/mL"}]}
